US11840686B2, “Modulation of prekallikrein (PKK) expression” (Ionis Pharmaceuticals, Inc., priority 2013, dated 2023)
Strand notation (5' to 3'): a small letter for the sugar, then the base; units joined by * are phosphorothioate-linked, units joined directly phosphodiester-linked; [ ] holds rarer units or linkages, { } end groups; capitals alone tell only the bases. e = 2'-O-(2-methoxyethyl) (MOE); [5mC] = 5-methylcytosine; d = 2'-deoxy (DNA)

Test system: human PKK mRNA
Experiment: Antisense inhibition of human PKK mRNA in HepaRG cells, 5,000 nM (Example 2)
Format: cell-based
Conditions: HepaRG cells, electroporation with 5,000 nM antisense oligonucleotide, PKK mRNA by RT-PCR (RTS3454), relative to untreated control cells
Description: Additional antisense oligonucleotides were designed targeting a PKK nucleic acid and were tested for their effects on PKK mRNA in vitro.
The chimeric antisense oligonucleotides in the tables below were designed as 5-10-5 MOE gapmers, 4-9-4 MOE gapmers, 4-10-4 MOE gapmers, 4-10-3 MOE gapmers, 3-10-4 MOE gapmers, or 3-10-3 MOE gapmers. The 5-10-5 MOE gapmers are 20 nucleosides in length, wherein the central gap segment comprises of ten 2′-deoxynucleosides and is flanked by wing segments on the 5′ direction and the 3′ direction comprising five nucleosides each. The 4-9-4 MOE gapmers are 17 nucleosides in length, wherein the central gap segment comprises of nine 2′-deoxynucleosides and is flanked by wing segments on the 5′ direction and the 3′ direction comprising four nucleosides each. The 4-10-4 MOE gapmers are 18 nucleosides in length, wherein the central gap segment comprises of ten 2′-deoxynucleosides and is flanked by wing segments on the 5′ direction and the 3′ direction comprising four nucleosides each. The 4-10-3 MOE gapmers are 17 nucleosides in length, wherein the central gap segment comprises of ten 2′-deoxynucleosides and is flanked by wing segments on the 5′ direction and the 3′ direction comprising four and three nucleosides respectively. The 3-10-4 MOE gapmers are 17 nucleosides in length, wherein the central gap segment comprises often 2′-deoxynucleosides and is flanked by wing segments on the 5′ direction and the 3′ direction comprising three and four nucleosides respectively. The 3-10-3 MOE gapmers are 16 nucleosides in length, wherein the central gap segment comprises of ten 2′-deoxynucleosides and is flanked by wing segments on the 5′ direction and the 3′ direction comprising three nucleosides each. Each nucleoside in the 5′ wing segment and each nucleoside in the 3′ wing segment has a 2′-O-methoxyethyl modification. The internucleoside linkages throughout each gapmer are phosphorothioate linkages. All cytosine residues throughout each gapmer are 5-methylcytosines. “Start site” indicates the 5′-most nucleoside to which the gapmer is targeted in the human gene sequence. “Stop site” indicates the 3′-most nucleoside to which the gapmer is targeted in the human gene sequence.
Cultured HepaRG™ cells at a density of 20,000 cells per well were transfected using electroporation with 5,000 nM antisense oligonucleotide. After a treatment period of approximately 24 hours, RNA was isolated from the cells and PKK mRNA levels were measured by quantitative real-time PCR. Human primer probe set RTS3454 was used to measure mRNA levels. PKK mRNA levels were adjusted according to total RNA content, as measured by RIBOGREEN®. The antisense oligonucleotides were tested in a series of experiments that had similar culture conditions. Results are presented as percent inhibition of PKK, relative to untreated control cells.

[1] = approximately 24 hours, Table 6 experiment

Substance	% inhibition (Table 7, approx. 24 hours)	other results
546199 (antisense eT*eG*eG*e[5mC]*eA*dT*dT*d[5mC]*dT*dT*d[5mC]*dA*dA*d[5mC]*dA*e[5mC]*eT*eG*e[5mC]*eT) [compound 546199]		% inhibition [1]: 97%
546200 (antisense eA*eA*eA*eA*e[5mC]*dT*dG*dG*d[5mC]*dA*dG*d[5mC]*dG*dA*dA*eT*eG*eT*eT*eA) [compound 546200]		% inhibition [1]: 91%
546203 (antisense eA*eA*eT*eT*eG*dT*dT*d[5mC]*d[5mC]*dG*dG*dT*dA*d[5mC]*dT*e[5mC]*eT*eG*e[5mC]*e[5mC]) [compound 546203]		% inhibition [1]: 76%
546204 (antisense eA*eA*eT*eA*eG*dG*d[5mC]*dA*dA*dT*dT*dG*dT*dT*d[5mC]*e[5mC]*eG*eG*eT*eA) [compound 546204]		% inhibition [1]: 91%
546205 (antisense eG*eT*eA*e[5mC]*eT*dT*dT*dA*dA*dT*dA*dG*dG*d[5mC]*dA*eA*eT*eT*eG*eT) [compound 546205]		% inhibition [1]: 83%
546209 (antisense eG*e[5mC]*eT*eT*e[5mC]*dA*dG*dT*dG*dA*dG*dA*dA*dT*d[5mC]*e[5mC]*eA*eG*eA*eT) [compound 546209]		% inhibition [1]: 73%
546210 (antisense e[5mC]*e[5mC]*eA*eA*eT*dT*dT*d[5mC]*dT*dG*dA*dA*dA*dG*dG*eG*e[5mC]*eA*e[5mC]*eA) [compound 546210]		% inhibition [1]: 79%
546211 (antisense eG*eG*e[5mC]*eA*eA*d[5mC]*d[5mC]*dA*dA*dT*dT*dT*d[5mC]*dT*dG*eA*eA*eA*eG*eG) [compound 546211]		% inhibition [1]: 42%
546212 (antisense eA*eG*eA*eT*eG*d[5mC]*dT*dG*dG*dA*dA*dG*dA*dT*dG*eT*eT*e[5mC]*eA*eT) [compound 546212]		% inhibition [1]: 48%
546213 (antisense e[5mC]*e[5mC]*e[5mC]*eT*eG*dG*d[5mC]*dA*dA*d[5mC]*dA*dT*d[5mC]*d[5mC]*dA*e[5mC]*eA*eT*e[5mC]*eT) [compound 546213]		% inhibition [1]: 82%
546217 (antisense e[5mC]*eA*e[5mC]*eA*eA*dA*dA*dG*d[5mC]*dA*dT*d[5mC]*dT*dG*dG*eA*eG*eT*eG*eA) [compound 546217]	83%	
546218 (antisense eT*eG*eG*eT*e[5mC]*d[5mC]*dG*dA*d[5mC]*dA*d[5mC]*dA*d[5mC]*dA*dA*eA*eA*eG*e[5mC]*eA) [compound 546218]	71%	
546220 (antisense eT*eA*eG*eG*eT*dG*d[5mC]*dA*dG*dA*dT*dG*dG*dT*d[5mC]*e[5mC]*eG*eA*e[5mC]*eA) [compound 546220]	71%	
546222 (antisense eG*eG*eG*eT*eG*dA*dT*dA*dG*dG*dT*dG*d[5mC]*dA*dG*eA*eT*eG*eG*eT) [compound 546222]	12%	
546224 (antisense eT*eA*eG*eA*eA*dT*dG*dT*dA*dA*dA*dG*dA*dA*dG*eA*eG*eG*e[5mC]*eA) [compound 546224]	65%	
546226 (antisense e[5mC]*e[5mC]*eA*eT*eA*d[5mC]*dA*dT*dT*dT*dG*dT*dA*dT*dA*eG*eA*eA*eT*eG) [compound 546226]	37%	
546228 (antisense eG*eT*eG*eA*e[5mC]*dT*d[5mC]*dG*dA*dT*dT*dT*dT*d[5mC]*d[5mC]*eA*eT*eA*e[5mC]*eA) [compound 546228]	60%	
546229 (antisense eA*e[5mC]*eA*eT*eT*dT*d[5mC]*dT*dT*dT*dG*dT*dG*dA*d[5mC]*eT*e[5mC]*eG*eA*eT) [compound 546229]	19%	
546230 (antisense eG*eT*eG*eT*eG*d[5mC]*d[5mC]*dA*d[5mC]*dT*dT*dT*d[5mC]*dA*dG*eA*eT*eG*eT*eT) [compound 546230]	70%	
546231 (e[5mC]*eT*eT*eG*eG*dT*dG*dT*dG*d[5mC]*d[5mC]*dA*d[5mC]*dT*dT*eT*e[5mC]*eA*eG*eA; antisense) [compound 546231]	79%	
546233 (eA*eT*eG*eG*eT*dG*dT*dT*dT*dT*d[5mC]*dT*dT*dG*dA*eG*eG*eA*eG*eT; antisense) [compound 546233]	69%	

Substance	% inhibition (Table 7, approx. 24 hours)	other results
546234 (e[5mC]*e[5mC]*eA*eG*eA*dT*dA*dT*dG*dG*dT*dG*dT*dT*dT*eT*e[5mC]*eT*eT*eG; antisense) [compound 546234]	69%	
546235 (eG*eG*e[5mC]*eT*eA*dT*dA*dT*d[5mC]*d[5mC]*dA*dG*dA*dT*dA*eT*eG*eG*eT*eG; antisense) [compound 546235]	77%	
546236 (eG*eT*eT*eA*eA*dA*dA*dG*dG*d[5mC]*dT*dA*dT*dA*dT*e[5mC]*e[5mC]*eA*eG*eA; antisense) [compound 546236]	50%	
546237 (e[5mC]*eA*eG*eG*eT*dT*dA*dA*dA*dA*dG*dG*d[5mC]*dT*dA*eT*eA*eT*e[5mC]*e[5mC]; antisense) [compound 546237]	64%	
546238 (e[5mC]*eT*eT*eT*eT*dG*d[5mC]*dA*dG*dG*dT*dT*dA*dA*dA*eA*eG*eG*e[5mC]*eT; antisense) [compound 546238]	63%	
546239 (eG*eT*eT*e[5mC]*eT*dT*dT*dT*dG*d[5mC]*dA*dG*dG*dT*dT*eA*eA*eA*eA*eG; antisense) [compound 546239]	47%	
546240 (eG*eT*eA*eA*eA*dG*dT*dT*d[5mC]*dT*dT*dT*dT*dG*d[5mC]*eA*eG*eG*eT*eT; antisense) [compound 546240]	23%	
546241 (e[5mC]*eA*eG*eG*eT*dA*dA*dA*dG*dT*dT*d[5mC]*dT*dT*dT*eT*eG*e[5mC]*eA*eG; antisense) [compound 546241]	69%	
546242 (eG*eG*eG*eT*eT*d[5mC]*dA*dG*dG*dT*dA*dA*dA*dG*dT*eT*e[5mC]*eT*eT*eT; antisense) [compound 546242]	8%	
546243 (eA*eG*eA*eA*eT*dG*dG*d[5mC]*dA*dG*dG*dG*dT*dT*d[5mC]*eA*eG*eG*eT*eA; antisense) [compound 546243]	16%	
546244 (eT*eA*eA*eA*eT*dT*dT*dT*dA*dG*dA*dA*dT*dG*dG*e[5mC]*eA*eG*eG*eG; antisense) [compound 546244]	27%	
546249 (e[5mC]*eT*eT*e[5mC]*eT*d[5mC]*d[5mC]*dT*d[5mC]*d[5mC]*dA*dA*dA*dG*dT*e[5mC]*eA*eA*e[5mC]*eT; antisense) [compound 546249]	68%	
546250 (e[5mC]*eA*eT*eT*e[5mC]*dA*dA*dT*dT*d[5mC]*dT*dT*d[5mC]*dT*d[5mC]*e[5mC]*eT*e[5mC]*e[5mC]*eA; antisense) [compound 546250]	65%	
546252 (eT*e[5mC]*eT*eT*eG*dG*d[5mC]*dA*dA*dA*d[5mC]*dA*dT*dT*d[5mC]*eA*e[5mC]*eT*e[5mC]*e[5mC]; antisense) [compound 546252]		% inhibition (Table 8, approx. 24 hours): 73%
546256 (eT*e[5mC]*eA*eT*e[5mC]*dT*dT*dT*dG*dT*dG*d[5mC]*dA*dA*dG*eT*e[5mC]*eT*e[5mC]*eT; antisense) [compound 546256]		% inhibition (Table 8, approx. 24 hours): 83%
546258 (eA*e[5mC]*eA*eG*e[5mC]*dG*dA*dA*dT*d[5mC]*dA*dT*d[5mC]*dT*dT*eT*eG*eT*eG*e[5mC]; antisense) [compound 546258]		% inhibition (Table 8, approx. 24 hours): 74%
546259 (eA*e[5mC]*eT*eG*eA*d[5mC]*dA*dG*d[5mC]*dG*dA*dA*dT*d[5mC]*dA*eT*e[5mC]*eT*eT*eT; antisense) [compound 546259]		% inhibition (Table 8, approx. 24 hours): 86%
546260 (eG*eA*eA*eA*eA*dA*d[5mC]*dT*dG*dA*d[5mC]*dA*dG*d[5mC]*dG*eA*eA*eT*e[5mC]*eA; antisense) [compound 546260]		% inhibition (Table 8, approx. 24 hours): 84%
546263 (eG*eG*eA*eG*eT*dA*dA*dA*dG*dA*dA*dT*dA*dA*dG*eT*eG*eA*eA*eA; antisense) [compound 546263]		% inhibition (Table 8, approx. 24 hours): 0%
546265 (eG*eT*e[5mC]*eT*eT*d[5mC]*dT*dG*dG*dG*dA*dG*dT*dA*dA*eA*eG*eA*eA*eT; antisense) [compound 546265]		% inhibition (Table 8, approx. 24 hours): 65%
